Measured values taken from ChEMBL document CHEMBL4368907 (J Med Chem, 2019).
pEC50, pIC50: −log10 of the molar value. Numbered stars: 1 amine (or outer) side, 2 acyl side, 3 side chain; on linkers, the order of the positions; unused ones are H or OH. Square brackets hold non-standard residues; d marks the D form. Peptide text beside a SMILES is read from it. * marks the point of attachment. Phe(4-CH2SO3H) = N[C@@H](Cc1ccc(CS(=O)(=O)O)cc1)C(=O)O; C18 diacid = O=C(O)CCCCCCCCCCCCCCCCC(=O)*; γGlu = O=C(O)[C@H](CCC(=O)[*:2])N[*:1]; βAsp = O=C(O)[C@H](CC(=O)[*:2])N[*:1]; NMeF = CN[C@@H](Cc1ccccc1)C(=O)O; dNMeD = CN[C@H](CC(=O)O)C(=O)O; Nle = CCCC[C@H](N)C(=O)O; AEEA = NCCOCCOCC(=O)O

Legend:
[1] = Chemical stability of the compound in sodium phosphate buffer assessed as loss of purity 0.5 mM at pH 7.4 at 37 degC after 1 week by UHLPC-UV analysis; type: physicochemical; settings: read-out: Drug degradation
[2] = Chemical stability of the compound in sodium phosphate buffer assessed as purity 0.5 mM at pH 2.2 at 37 degC after 1 week by UHLPC-UV analysis; type: physicochemical; settings: read-out: Stability
[3] = biological target: T1, Cholecystokinin receptor type A (Homo sapiens, UniProt P32238); experiment: Displacement of [125I]-CCK-8 from human CCK1R expressed in human 1321N1 cell membranes after 2 hrs by SPA assay
T1 sequence (P32238 whole entry): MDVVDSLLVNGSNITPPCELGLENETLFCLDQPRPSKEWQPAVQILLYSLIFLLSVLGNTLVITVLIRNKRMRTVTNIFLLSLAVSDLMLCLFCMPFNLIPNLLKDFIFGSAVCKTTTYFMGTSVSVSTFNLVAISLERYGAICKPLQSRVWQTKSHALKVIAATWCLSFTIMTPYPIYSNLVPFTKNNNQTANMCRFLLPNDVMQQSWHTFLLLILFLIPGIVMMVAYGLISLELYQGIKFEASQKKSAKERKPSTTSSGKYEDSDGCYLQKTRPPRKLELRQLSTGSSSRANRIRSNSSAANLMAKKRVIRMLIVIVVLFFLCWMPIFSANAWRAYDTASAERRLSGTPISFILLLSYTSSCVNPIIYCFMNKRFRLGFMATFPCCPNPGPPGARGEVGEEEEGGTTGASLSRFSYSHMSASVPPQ

[4] = biological target: T1, Cholecystokinin receptor type A; experiment: Agonist activity at human CCK1R expressed in human 1321N1 cells assessed as IP1 accumulation after 1 hr by HTRF assay; type: functional, cell-based
[5] = Terminal half life in Ellegaard Gottingen minipig at 5 nmol/kg, iv by LC-MS/MS analysis; type: ADME, organism-based, Sus scrofa; settings: pig, in vivo, read-out: beta t1/2 (converted)
Sus scrofa [6] = experiment: Anti-obesity activity in lean Landrace Yorkshire Duroc pig assessed as food intake at 30 nmol/kg, sc measured up to 24 hrs post dose (reference value: 1.8 to 2.1 kg); type: functional
Sus scrofa [7] = experiment: Anti-obesity activity in lean Landrace Yorkshire Duroc pig assessed as food intake at 30 nmol/kg, sc measured at 24 to 48 hrs post dose (reference value: 1.8 to 2.1 kg); type: functional
Sus scrofa [8] = experiment: Anti-obesity activity in lean Landrace Yorkshire Duroc pig assessed as food intake at 30 nmol/kg, sc measured at 48 to 72 hrs post dose (reference value: 1.8 to 2.1 kg); type: functional
Sus scrofa [9] = experiment: Anti-obesity activity in lean Landrace Yorkshire Duroc pig assessed as food intake at 30 nmol/kg, sc measured at 72 to 96 hrs post dose (reference value: 1.8 to 2.1 kg); type: functional
[10] = Plasma concentration in lean Landrace Yorkshire Duroc pig at 30 nmol/kg, sc measured after 96 hrs post dose; type: ADME, organism-based, Sus scrofa
[11] = Toxicity in lean Landrace Yorkshire Duroc pig at 30 nmol/kg, sc measured up to 96 hrs post dose; type: organism-based, Sus scrofa; settings: in vivo
[12] = Drug level in sodium phosphate buffer treated with 1 mM (2R,5S,8S,14S,17S,20S,43S)-8-((1H-indol-3-yl)methyl)-2-(((S)-1-amino-1-oxo-3-phenylpropan-2-yl)(methyl)carbamoyl)-5,14-dibutyl-20-(carboxymethyl)-3-methyl-4,7,10,13,16,19,22,31,40,45-decaoxo-17-(4-(sulfomethyl)benzyl)-24,27,33,36-tetraoxa-3,6,9,12,15,18,21,30,39,44-decaazahenhexacontane-1,43,61-tricarboxylic acid assessed as compound formation at pH 7.4 at 37 degC after 1 to 2 weeks by UHLPC-UV analysis; type: physicochemical
[13] = Drug metabolism in Ellegaard Gottingen minipig plasma assessed as C18d-gammaGlu-(OEG)2-Asp-Phe(4sm)-OH peptide metabolite formation at 5 nmol/kg, iv administered as single dose by LC-MS/MS analysis; type: ADME, organism-based, Sus scrofa; settings: pig, in vivo
[14] = Drug metabolism in Ellegaard Gottingen minipig plasma assessed as C18d-gammaGlu-(OEG)2-Asp-Phe(4sm)-Nle-Gly-OH peptide metabolite formation at 5 nmol/kg, iv administered as single dose by LC-MS/MS analysis; type: ADME, organism-based, Sus scrofa; settings: pig, in vivo
[15] = Drug metabolism in Ellegaard Gottingen minipig plasma assessed as C18d-gammaGlu-(OEG)2-Asp-Phe(4sm)-Nle-Gly-Trp-Nle-DMeAspOH peptide metabolite formation at 5 nmol/kg, iv administered as single dose by LC-MS/MS analysis; type: ADME, organism-based, Sus scrofa; settings: pig, in vivo
albumin = albumin (Homo sapiens, UniProt P02768); experiment: Binding affinity to human serum albumin at 500 nM after 2 hrs by LC-MS analysis; type: ADME; settings: read-out: PB (converted)
[16] = Protein binding in Ellegaard Gottingen minipig plasma at 500 nM after 2 hrs by LC-MS analysis; type: ADME, cell-free, Sus scrofa; settings: pig, read-out: PPB (converted)
[17] = Chemical stability of the compound in sodium phosphate buffer assessed as loss of purity 1 mM at pH 7.4 at 37 degC after 1 week by UHLPC-UV analysis; type: physicochemical; settings: read-out: Drug degradation
[18] = Chemical stability of the compound in sodium phosphate buffer assessed as loss of purity 1 mM at pH 7.4 at 37 degC after 2 weeks by UHLPC-UV analysis; type: physicochemical; settings: read-out: Drug degradation
[19] = Drug metabolism in sodium phosphate buffer assessed as (2R,5S,8S,14S,17S,21S,44S)-8-((1H-indol-3-yl)methyl)-2-(((S)-1-amino-1-oxo-3-phenylpropan-2-yl)(methyl)carbamoyl)-5,14-dibutyl-3-methyl-4,7,10,13,16,19,23,32,41,46-decaoxo-17-(4-(sulfomethyl)benzyl)-25,28,34,37-tetraoxa-3,6,9,12,15,18,22,31,40,45-decaazadohexacontane-1,21,44,62-tetracarboxylic acid formation at 1 mM at pH 7.4 at 37 degC after 1 to 2 weeks by UHLPC-UV analysis

Chain of albumin (P02768 whole entry): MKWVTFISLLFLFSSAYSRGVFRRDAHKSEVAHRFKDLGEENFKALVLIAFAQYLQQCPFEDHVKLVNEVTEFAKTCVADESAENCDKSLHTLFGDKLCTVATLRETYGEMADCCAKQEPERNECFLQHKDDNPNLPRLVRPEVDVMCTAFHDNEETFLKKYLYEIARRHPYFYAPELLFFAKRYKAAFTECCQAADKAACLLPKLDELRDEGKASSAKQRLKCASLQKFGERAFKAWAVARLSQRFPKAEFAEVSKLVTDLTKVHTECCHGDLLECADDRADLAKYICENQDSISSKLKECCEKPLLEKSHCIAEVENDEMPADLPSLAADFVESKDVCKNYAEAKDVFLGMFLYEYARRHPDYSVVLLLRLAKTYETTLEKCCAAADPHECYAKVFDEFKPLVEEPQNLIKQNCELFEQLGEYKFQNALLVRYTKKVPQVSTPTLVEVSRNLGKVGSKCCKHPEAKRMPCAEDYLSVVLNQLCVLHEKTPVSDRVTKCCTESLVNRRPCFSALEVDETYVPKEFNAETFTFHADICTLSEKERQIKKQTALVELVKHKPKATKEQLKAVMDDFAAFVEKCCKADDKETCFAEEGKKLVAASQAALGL

degraded at 168 h, 500 µM [1]	remaining at 168 h, 500 µM [2]	pIC50 [3]	pEC50 [4]	half-life [5]	concentration at 96 h [10]	Drug uptake [12]	Drug metabolism [13]	Drug metabolism [14]	Drug metabolism [15]	fraction unbound at 2 h, 0.5 µM (albumin)	fraction unbound at 2 h, 0.5 µM [16]	degraded at 168 h, 1000 µM [17]	degraded at 336 h, 1000 µM [18]	SMILES	Activity (Sus scrofa [6])	Activity (Sus scrofa [7])	Activity (Sus scrofa [8])	Activity (Sus scrofa [9])	Activity [11]	Drug metabolism [19]
0.8%	22%	–	–	–	–	–	–	–	–	–	–	–	–	CCCC[C@H](NC(=O)[C@H](Cc1ccc(OS(=O)(=O)O)cc1)NC(=O)[C@H](CC(=O)O)NC(=O)COCCOCCNC(=O)COCCOCCNC(=O)CC[C@H](NC(=O)CCCCCCCCCCCCCCCCC(=O)O)C(=O)O)C(=O)NCC(=O)N[C@@H](Cc1c[nH]c2ccccc12)C(=O)N[C@@H](CCCC)C(=O)N[C@@H](CC(=O)O)C(=O)N[C@@H](Cc1ccccc1)C(N)=O	–	–	–	–	–	–
–	–	10.10	9.50	106 h	0.0887 µM	Active	–	–	–	–	–	–	–	CCCC[C@H](NC(=O)[C@H](Cc1ccc(CS(=O)(=O)O)cc1)NC(=O)C[C@H](NC(=O)COCCOCCNC(=O)COCCOCCNC(=O)CC[C@H](NC(=O)CCCCCCCCCCCCCCCCC(=O)O)C(=O)O)C(=O)O)C(=O)NCC(=O)N[C@@H](Cc1c[nH]c2ccccc12)C(=O)N[C@@H](CCCC)C(=O)N(C)[C@H](CC(=O)O)C(=O)N(C)[C@@H](Cc1ccccc1)C(N)=O ({C18 diacid-γGlu-AEEA-AEEA-βAsp}-[Phe(4-CH2SO3H)][Nle]GW[Nle][dNMeD][NMeF]-NH2)	1.1 kg	1.5 kg	1.8 kg	1.7 kg	Non-Toxic	–
–	–	10.28	9.60	–	0.0849 µM	–	Metabolite_Detected	Metabolite_Detected	Metabolite_Detected	0.003	0.003	1.3%	2.2%	CCCC[C@H](NC(=O)[C@H](Cc1ccc(CS(=O)(=O)O)cc1)NC(=O)[C@H](CC(=O)O)NC(=O)COCCOCCNC(=O)COCCOCCNC(=O)CC[C@H](NC(=O)CCCCCCCCCCCCCCCCC(=O)O)C(=O)O)C(=O)NCC(=O)N[C@@H](Cc1c[nH]c2ccccc12)C(=O)N[C@@H](CCCC)C(=O)N(C)[C@H](CC(=O)O)C(=O)N(C)[C@@H](Cc1ccccc1)C(N)=O ({C18 diacid-γGlu-AEEA-AEEA}-D[Phe(4-CH2SO3H)][Nle]GW[Nle][dNMeD][NMeF]-NH2)	1 kg	1.1 kg	1.5 kg	1.9 kg	Non-Toxic	Metabolite detected
